Test results as given in patent US8217065B2, “Organic compounds” (Novartis AG, priority 2007, dated 2012).
pIC50: −log10 of the molar value.

Biological target: T1, human DGAT1 (Homo sapiens, UniProt O75907)
T1 construct: (His)6; made in house; host or cells: Sf9 insect cells (membrane preparation)
T1 sequence (O75907 1-488): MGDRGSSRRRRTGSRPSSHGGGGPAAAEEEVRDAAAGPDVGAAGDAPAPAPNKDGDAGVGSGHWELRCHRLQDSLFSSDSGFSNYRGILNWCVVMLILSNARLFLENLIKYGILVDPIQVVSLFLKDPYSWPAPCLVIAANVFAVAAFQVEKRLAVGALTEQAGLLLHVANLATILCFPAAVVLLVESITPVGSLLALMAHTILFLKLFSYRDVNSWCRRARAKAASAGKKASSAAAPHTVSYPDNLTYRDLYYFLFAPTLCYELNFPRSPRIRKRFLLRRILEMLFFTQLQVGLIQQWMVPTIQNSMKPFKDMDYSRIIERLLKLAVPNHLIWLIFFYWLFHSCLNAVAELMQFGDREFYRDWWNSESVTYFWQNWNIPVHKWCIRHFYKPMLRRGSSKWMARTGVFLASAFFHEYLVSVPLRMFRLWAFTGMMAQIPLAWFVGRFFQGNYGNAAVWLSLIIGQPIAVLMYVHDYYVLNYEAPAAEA
Test: DGAT1 enzyme inhibition assay (Sf9 membrane preparation, LC/MS/MS readout)
Format: biochemical
Details: membrane preparation from Sf9 cells overexpressing human (His)6DGAT1; 10-point, 3-fold dose response; read-out: IC50 (inhibitory activity to human DGAT1)
Method: The enzyme preparation used in this assay is a membrane preparation from Sf9 cells overexpressing human (His)6DGAT1. During all steps samples were chilled to 4° C. Sf9 cells expressing human (His)6DGAT1 were thawed at RT and re-suspended at a 10:1 ratio (mL buffer/g of cells) in 50 mM HEPES, 1× Complete Protease Inhibitor, pH 7.5. The re-suspended pellet was homogenized for 1 min using a Brinkman PT 10/35 homogenizer with a 20 mm generator. Cells were lysed using Avestin Emulsiflex (chilled to 4° C.) at 10000-15000 psi. Lysate was centrifuged at 100,000×g for 1 h at 4° C. Supernatant was removed and pellets were re-suspended in 50 mM HEPES, 1× Complete Protease Inhibitor, pH 7.5 at ⅙ the volume of supernatant. Re-suspended pellets were pooled and homogenized with 10 strokes of a Glas-Col motor driven teflon pestle on setting 70. The protein concentration of the membrane preparation was quantified using BCA protein assay with 1% SDS. The membrane preparation was aliquoted, frozen on dry ice, and stored at −80° C.
For 50 mL, 25 mL of 0.2 M HEPES stock buffer, 0.5 mL of 1 M MgCl2 (5 mM final concentration), and 24.5 mL of milli-Q H20 are added to the 55 mL Wheaton Potter-Elvehjem homogenizer. Enzyme preparation (0.1 mL) is added to buffer and the mixture is homogenized with 5 strokes on ice using the Glas-Col variable speed homogenizer system on setting 70.
For 50 mL, 0.5 mL 10 mM diolein is added to 9.5 mL of EtOH in a 50 mL Falcon screw cap conical centrifuge tube. Five mL of 10 mM sodium acetate pH 4.5 is added followed by 0.5 mL of 10 mM oleoyl-CoA. Finally, the remaining 4.5 mL of 10 mM sodium acetate pH 4.5 is added followed by 30 mL of milli-Q H2O. The solution should be gently agitated by hand to induce mixing. The final concentrations of EtOH and sodium acetate are 20% and 2 mM, respectively.
Dry compounds are dissolved in the appropriate volume of DMSO to a final concentration of 10 mM. A 10-point, 3-fold dose response is used to evaluate compound potency. All dilutions are performed in DMSO in a Greiner 384-well microplate. • 1. 2 μL of compound in DMSO is added to the appropriate wells. 2 μL of DMSO is added to 100% activity and 100% inhibition controls. • 2. 25 μL of enzyme mix is added to all wells and plate(s) are incubated for 10 min at RT. • 3. 10 μL of 20% acetic acid quench is added to 100% inhibition control wells. Plate(s) are vortexed using Troemner multi-tube vortexer (setting 7 for 10 sec). • 4. 25 μL of substrate mix is added to all wells. Plate(s) are vortexed using Troemner multi-tube vortexer (setting 7 for 10 sec). Plate(s) are incubated for 30 min at RT. • 5. 10 μL of 20% acetic acid quench is added to all wells. Plate(s) are vortexed using Troemner multi-tube vortexer (setting 7 for 10 sec). • 6. 50 μL of 1-butanol w/ glyceryl tripalmitoleate internal standard is added to all wells. • 7. Plate(s) are sealed with super pierce strong plate sealer using the thermo-sealer.
8. Plate(s) are vortexed using Troemner multi-tube vortexer (setting 10 for 5 min). • 9. Plate(s) are centrifuged at 162×g (1000 rpm for GH-3.8 rotor) for 5 min using Beckman GS-6R tabletop centrifuge.
Samples were analyzed by LC/MS/MS using a Waters 1525μ LC and Quattro Micro API MS. Where indicated, tripalmitolein was used as an internal standard to control for instrument variation.
Data is converted to % inhibition prior to curve fitting using the following equation: […]

SMILES	pIC50
COc1ccc(-c2nnc(-c3ccc4nc(-c5c(C)cc(CC(C)(C)C(=O)O)cc5C)[nH]c4c3)o2)cc1 [Example 1-62, 3-(4-{5-[5-(4-Methoxy-phenyl)-[1,3,4]oxadiazol-2-yl]-1H-benzoimidazol-2-yl}-3,5-dimethyl-phenyl)-2,2-dimethyl-propionic acid]	7.82
Cc1cc(CCC(=O)O)cc(C)c1-c1nc2ccc(-c3nnc(Nc4cccc(Cl)c4)o3)cc2[nH]1 [Example 1-59, 3-(4-{6-[5-(3-Chlorophenylamino)-[1,3,4]oxadiazol-2-yl]-1H-benzoimidazol-2-yl}-3,5-dimethylphenyl)-propionic acid]	8.05
Clc1cccc(Cl)c1-c1nc2ccc(-c3nnc(N4CCCC4)o3)cc2[nH]1 [Example 1-34, 2-(2,6-Dichloro-phenyl)-6-(5-pyrrolidin-1-yl-[1,3,4]oxadiazol-2-yl)-1H-benzoimidazole]	< 5.00
Clc1cccc(Cl)c1-c1nc2ccc(-c3nc(-c4ccccc4)c(-c4ccccc4)o3)cc2[nH]1 [Example 1-24, 2-(2,6-Dichloro-phenyl)-6-(4,5-diphenyl-oxazol-2-yl)-1H -benzoimidazole]	< 5.00

More lines, now with the values ahead:

pIC50	SMILES
7.10	Clc1cc(Nc2nnc(-c3ccc4nc(-c5c(Cl)cccc5Cl)[nH]c4c3)o2)ccn1 [Example 1-43, (2-Chloro-pyridin-4-yl)-{5-[2-(2,6-dichloro-phenyl)-3H-benzoimidazol-5-yl]-[1,3,4]oxadiazol-2-yl}-amine]
6.40	Clc1cccc(Cl)c1-c1nc2ccc(-c3nnc(Nc4cccnc4)o3)cc2[nH]1 [Example 1-29, {5-[2-(2,6-Dichloro-phenyl)-3H-benzoimidazol-5-yl]-[1,3,4]oxadiazol-2-yl}-pyridin-3-yl-amine]
5.33	Cc1nc(-c2ccc3nc(-c4c(Cl)cccc4Cl)[nH]c3c2)oc1-c1ccc(Cl)cc1 [Example 1-25, 6-[5-(4-Chlorophenyl)-4-methyl-oxazol-2-yl]-2-(2,6-dichlorophenyl)-1H-benzoimidazole]
5.64	Cc1cncc(-c2nnc(-c3ccc4nc(-c5c(Cl)cccc5Cl)[nH]c4c3)o2)c1 [Example 1-15, 2-(2,6-Dichloro-phenyl)-6-[5-(5-methyl-pyridin-3-yl)-[1,3,4]oxadiazol-2-yl]-1H-benzoimidazole]
7.27	Cc1ccc(Nc2nnc(-c3ccc4nc(-c5c(Cl)cccc5Cl)[nH]c4c3)o2)cn1 [Example 1-38, {5-[2-(2,6-Dichloro-phenyl)-3H-benzoimidazol-5-yl]-[1,3,4]oxadiazol-2-yl}-(6-methyl-pyridin-3-yl)-amine]
6.51	N#Cc1cccc(Nc2nnc(-c3ccc4nc(-c5c(Cl)cccc5Cl)[nH]c4c3)o2)c1 [Example 1-51, 3-{5-[2-(2,6-Dichloro-phenyl)-3H-benzoimidazol-5-yl]-[1,3,4]oxadiazol-2-ylamino}-benzonitrile]
